Test results published in patent publication US8933018B2, “Boron containing polybasic bacterial efflux pump inhibitors and therapeutic uses thereof” (priority 2011, dated 2015).

Tested on: P. aeruginosa, PAM1723, overexpressing the MexAB-OprM efflux pump
Format: cell-based, Pseudomonas aeruginosa
Conditions: lowest EPI concentration giving antibacterial activity with levofloxacin at 1/8 of its MIC, MHB, 20 h at 35° C.
Procedure: All EPI compounds were readily soluble in water and stock solutions were prepared at a final concentration of 10 mg/ml. Stock solutions were further diluted, according to the needs of the particular assay, in Mueller Hinton Broth (MHB). Stock solution was stored at […].
The checkerboard assay was performed in microtiter plates. […] EPIs were diluted in the y-axis, each row containing a single concentration of an EPI. […] The assay was performed in MHB with a final bacterial inoculum of 5 times 10^5 CFU/ml (from an early-log phase culture). Microtiter plates were incubated during 20 h at 35° C. and were read using a microtiter plate reader (Molecular Devices) at 650 nm as well as visual observation using a microtiter plate-reading mirror.

## NCCN(CCN)C(=O)CC[C@H](N)C(=O)N[C@H](CCc1ccc(C(F)(F)F)cc1)C(=O)NCC1OB(O)c2ccccc21 (stereo in doubt) [Compound 36, (S)-2-amino-N5,N5-bis(2-aminoethyl)-N1-((R)-1-(((R)-1-hydroxy-1,3-dihydrobenzo[c][1,2]oxaborol-3-yl)methylamino)-1-oxo-4-(4-(trifluoromethyl)phenyl)butan-2-yl)pentanediamide]
  MPC8 (Minimum Potentiating Concentration): B (B = MPC8 of 2.5 μg/ml to less than 10 μg/mL.)

## NCCN(CCN)C(=O)CC[C@H](N)C(=O)N[C@H](Cc1ccc(C(F)(F)F)cc1)C(=O)Nc1ccc2c(c1)B(O)OC2 [Compound 1, (S)-2-amino-N5,N5-bis(2-aminoethyl)-N1-((R)-1-(1-hydroxy-1,3-dihydrobenzo[c][1,2]oxaborol-6-ylamino)-1-oxo-3-(4-(trifluoromethyl)phenyl)propan-2-yl)pentanediamide]
  MPC8 (Minimum Potentiating Concentration): C (C = MPC8 of 10 μg/mL or greater.)

## NCCN(CCN)C(=O)CC[C@H](N)C(=O)N[C@H](Cc1ccc(C(F)(F)F)cc1)C(=O)NCc1ccc(B(O)O)cc1 [Compound 3, 4-(((R)-2-((S)-2-amino-5-(bis(2-aminoethyl)amino)-5-oxopentanamido)-3-(4-(trifluoromethyl)phenyl)propanamido)methyl)phenylboronic acid]
  MPC8 (Minimum Potentiating Concentration): C (C = MPC8 of 10 μg/mL or greater.)

## NCCN(CCN)C(=O)C[C@H](N)C(=O)N[C@H](C(=O)Nc1ccc2c(c1)B(O)OC2)[C@H](O)c1ccc(C(F)(F)F)cc1 [Compound 4, (S)-2-amino-N4,N4-bis(2-aminoethyl)-N1-((1R,2S)-1-hydroxy-3-(1-hydroxy-1,3-dihydrobenzo[c][1,2]oxaborol-6-ylamino)-3-oxo-1-(4-(trifluoromethyl)phenyl)propan-2-yl)succinamide]
  MPC8 (Minimum Potentiating Concentration): C (C = MPC8 of 10 μg/mL or greater.)

## NCCN(CCN)C(=O)C[C@H](N)C(=O)N[C@H](Cc1ccc(C(F)(F)F)cc1)C(=O)Nc1ccc2c(c1)B(O)OC2 [Compound 5, (S)-2-amino-N4,N4-bis(2-aminoethyl)-N1-((R)-1-(1-hydroxy-1,3-dihydrobenzo[c][1,2]oxaborol-6-ylamino)-1-oxo-3-(4-(trifluoromethyl)phenyl)propan-2-yl)succinamide]
  MPC8 (Minimum Potentiating Concentration): C (C = MPC8 of 10 μg/mL or greater.)

## NCCN(CCN)C(=O)C[C@H](N)C(=O)N[C@H](CCc1ccc(C(F)(F)F)cc1)C(=O)Nc1ccc2c(c1)B(O)OC2 [Compound 7, (S)-2-amino-N4,N4-bis(2-aminoethyl)-N1-((R)-1-(1-hydroxy-1,3-dihydrobenzo[c][1,2]oxaborol-6-ylamino)-1-oxo-4-(4-(trifluoromethyl)phenyl)butan-2-yl)succinamide]
  MPC8 (Minimum Potentiating Concentration): B (B = MPC8 of 2.5 μg/ml to less than 10 μg/mL.)

## NCCN(CCN)C(=O)CC[C@H](N)C(=O)N[C@H](Cc1ccc(C(F)(F)F)cc1)C(=O)Nc1ccccc1B(O)O [Compound 8, 2-((R)-2-((S)-2-amino-5-(bis(2-aminoethyl)amino)-5-oxopentanamido)-3-(4-(trifluoromethyl)phenyl)propanamido)phenylboronic acid]
  MPC8 (Minimum Potentiating Concentration): C (C = MPC8 of 10 μg/mL or greater.)

## NCCN(CCN)C(=O)CC[C@H](N)C(=O)N[C@@H](Cc1ccc(C(F)(F)F)cc1)C(=O)Nc1ccccc1B(O)O [Compound 9, 2-((S)-2-((S)-2-amino-5-(bis(2-aminoethyl)amino)-5-oxopentanamido)-3-(4-(trifluoromethyl)phenyl)propanamido)phenylboronic acid]
  MPC8 (Minimum Potentiating Concentration): C (C = MPC8 of 10 μg/mL or greater.)

## NCCN(CCN)C(=O)C[C@H](N)C(=O)N[C@H](Cc1ccc(C(F)(F)F)cc1)C(=O)Nc1cc(B(O)O)cc(C(F)(F)F)c1 [Compound 10, 3-((R)-2-((S)-2-amino-4-(bis(2-aminoethyl)amino)-4-oxobutanamido)-3-(4-(trifluoromethyl)phenyl)propanamido)-5-(trifluoromethyl)phenylboronic acid]
  MPC8 (Minimum Potentiating Concentration): B (B = MPC8 of 2.5 μg/ml to less than 10 μg/mL.)

## NCCN(CCN)C(=O)C[C@H](N)C(=O)N[C@@H](Cc1ccc(C(F)(F)F)cc1)C(=O)Nc1cc(B(O)O)cc(C(F)(F)F)c1 [Compound 11, 3-((S)-2-((S)-2-amino-4-(bis(2-aminoethyl)amino)-4-oxobutanamido)-3-(4-(trifluoromethyl)phenyl)propanamido)-5-(trifluoromethyl)phenylboronic acid]
  MPC8 (Minimum Potentiating Concentration): B (B = MPC8 of 2.5 μg/ml to less than 10 μg/mL.)

## NCCN(CCN)C(=O)CC[C@H](N)C(=O)N[C@H](CCC1CCCCC1)C(=O)Nc1cc(B(O)O)cc(C(F)(F)F)c1 [Compound 12, 3-((R)-2-((S)-2-amino-5-(bis(2-aminoethyl)amino)-5-oxopentanamido)-4-cyclohexylbutanamido)-5-(trifluoromethyl)phenylboronic acid]
  MPC8 (Minimum Potentiating Concentration): A (A = MPC8 of less than 2.5 μg/mL.)

## NCCN(CCN)C(=O)CC[C@H](N)C(=O)N[C@H](CCc1ccc(C(F)(F)F)cc1)C(=O)Nc1cc(B(O)O)cc(C(F)(F)F)c1 [Compound 13, 3-((R)-2-((S)-2-amino-5-(bis(2-aminoethyl)amino)-5-oxopentanamido)-4-(4-(trifluoromethyl)phenyl)butanamido)-5-(trifluoromethyl)phenylboronic acid]
  MPC8 (Minimum Potentiating Concentration): B (B = MPC8 of 2.5 μg/ml to less than 10 μg/mL.)

## NCCN(CCN)C(=O)CC[C@H](N)C(=O)N[C@H](Cc1ccc(C(F)(F)F)cc1)C(=O)Nc1cc(B(O)O)cc(C(F)(F)F)c1 [Compound 15, 3-((R)-2-((S)-2-amino-5-(bis(2-aminoethyl)amino)-5-oxopentanamido)-3-(4-(trifluoromethyl)phenyl)propanamido)-5-(trifluoromethyl)phenylboronic acid]
  MPC8 (Minimum Potentiating Concentration): B (B = MPC8 of 2.5 μg/ml to less than 10 μg/mL.)

## NCCN(CCN)C(=O)CC[C@H](N)C(=O)N[C@H](Cc1ccc(C(F)(F)F)cc1)C(=O)Nc1ccc(C(F)(F)F)c(B(O)O)c1 [Compound 16, 5-((R)-2-((S)-2-amino-5-(bis(2-aminoethyl)amino)-5-oxopentanamido)-3-(4-(trifluoromethyl)phenyl)propanamido)-2-(trifluoromethyl)phenylboronic acid]
  MPC8 (Minimum Potentiating Concentration): C (C = MPC8 of 10 μg/mL or greater.)

## NCCN(CCN)C(=O)CC[C@H](N)C(=O)N[C@H](Cc1ccc(C(F)(F)F)cc1)C(=O)Nc1ccc(B(O)O)c(C(F)(F)F)c1 [Compound 17, 4-((R)-2-((S)-2-amino-5-(bis(2-aminoethyl)amino)-5-oxopentanamido)-3-(4-(trifluoromethyl)phenyl)propanamido)-2-(trifluoromethyl)phenylboronic acid]
  MPC8 (Minimum Potentiating Concentration): C (C = MPC8 of 10 μg/mL or greater.)

## N[C@@H]1C[C@H](N)CN(C(=O)CC[C@H](N)C(=O)N[C@H](Cc2ccc(C(F)(F)F)cc2)C(=O)Nc2cc(B(O)O)cc(C(F)(F)F)c2)C1 [Compound 18, 3-((R)-2-((S)-2-amino-5-((3R,5S)-3,5-diaminopiperidin-1-yl)-5-oxopentanamido)-3-(4-(trifluoromethyl)phenyl)propanamido)-5-(trifluoromethyl)phenylboronic acid]
  MPC8 (Minimum Potentiating Concentration): B (B = MPC8 of 2.5 μg/ml to less than 10 μg/mL.)

## N[C@@H]1CC(NC(=O)CC[C@H](N)C(=O)N[C@H](Cc2ccc(C(F)(F)F)cc2)C(=O)Nc2cc(B(O)O)cc(C(F)(F)F)c2)C[C@H](N)C1 (stereo partly drawn) [Compound 19, 3-((R)-2-((S)-2-amino-5-((1R,3R,5S)-3,5-diaminocyclohexylamino)-5-oxopentanamido)-3-(4-(trifluoromethyl)phenyl)propanamido)-5-(trifluoromethyl)phenylboronic acid]
  MPC8 (Minimum Potentiating Concentration): B (B = MPC8 of 2.5 μg/ml to less than 10 μg/mL.)

## NCC(O)(CN)CNC(=O)CC[C@H](N)C(=O)N[C@H](CCc1ccc(C(F)(F)F)cc1)C(=O)Nc1cc(B(O)O)cc(C(F)(F)F)c1 [Compound 21, 3-((R)-2-((S)-2-amino-5-(3-amino-2-(aminomethyl)-2-hydroxypropylamino)-5-oxopentanamido)-4-(4-(trifluoromethyl)phenyl)butanamido)-5-(trifluoromethyl)phenylboronic acid]
  MPC8 (Minimum Potentiating Concentration): B (B = MPC8 of 2.5 μg/ml to less than 10 μg/mL.)

## NCC(O)(CN)CNC(=O)CC[C@H](N)C(=O)N[C@H](CCc1ccc(C(F)(F)F)cc1)C(=O)Nc1cccc(B(O)O)c1 [Compound 22, 3-((R)-2-((S)-2-amino-5-(3-amino-2-(aminomethyl)-2-hydroxypropylamino)-5-oxopentanamido)-4-(4-(trifluoromethyl)phenyl)butanamido) phenylboronic acid]
  MPC8 (Minimum Potentiating Concentration): B (B = MPC8 of 2.5 μg/ml to less than 10 μg/mL.)

## N[C@@H]1C[C@H](N)C[C@H](NC(=O)CC[C@H](N)C(=O)N[C@H](CCc2ccc(C(F)(F)F)cc2)C(=O)Nc2cccc(B(O)O)c2)C1 [Compound 23, 3-((R)-2-((S)-2-amino-5-((1S,3R,5S)-3,5-diaminocyclohexylamino)-5-oxopentanamido)-4-(4-(trifluoromethyl)phenyl)butanamido)phenylboronic acid]
  MPC8 (Minimum Potentiating Concentration): B (B = MPC8 of 2.5 μg/ml to less than 10 μg/mL.)

## N[C@@H]1C[C@H](N)CN(C(=O)CC[C@H](N)C(=O)N[C@H](CCc2ccc(C(F)(F)F)cc2)C(=O)Nc2cccc(B(O)O)c2)C1 [Compound 24, 3-((R)-2-((S)-2-amino-5-((3R,5S)-3,5-diaminopiperidin-1-yl)-5-oxopentanamido)-4-(4-(trifluoromethyl)phenyl)butanamido)phenylboronic acid]
  MPC8 (Minimum Potentiating Concentration): B (B = MPC8 of 2.5 μg/ml to less than 10 μg/mL.)
